Measured values as given in US20220125913A1, “[…] PEPTIDES, AMINO-ACID SEQUENCES, AND COMPOSITIONS USEFUL FOR SARS-CoV-2 DETECTION AND COVID-19 PREVENTION” (priority 2020, published 2022).

Tested on: SARS-CoV-2 circulation lineages in Colombia (B.1, B.1.111, B.1.111+E48K)
Details: in vivo, sc

Sequence | sera neutralizing antibodies
CGVLSFELLHAPATVSGPKKSTNGC [PHE-14] | detected
CGKDQVILLNKHIDAYKTFPPTGC [PHE-30] | detected
CGVTLAILTALRLSAYSSNIVGC [PHE-20] | detected
